Test results from US20240246918A1, “COMPOUNDS AND COMPOSITIONS AS EIF4E INHIBITORS AND THE USES THEREOF” (Ribometrix, Inc., priority 2022, published 2024).
pIC50: −log10 of the molar value.

Tests used:
[1] = test system: cap-dependent translation in Flp-In-293 reporter cells; assay: Cellular cap-dependent translation inhibition assay (dual luciferase assay, DLA; Fluc/Rluc ratio, 24 hours); format: cell-based; conditions: Homo sapiens, Flp-In-293, 24 h, dual luciferase assay, Flp-In-293 reporter cells, 24 hours, Fluc/Rluc ratio; read-out: DLA 205 IC50
[2] = test system: COLO 205 colorectal tumor cells; assay: Tumor cell viability inhibition assay (CellTiter-Glo 2.0, 72 hours); format: cell-based; conditions: Homo sapiens, COLO 205, 72 h, COLO 205 cell viability
Method in brief: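 IC50 derived by 4-parameter fitting after normalizing luminescence to DMSO and max-inhibition wells. Compounds tested as 11 concentrations in 4-fold steps on COLO 205 cells seeded at 1500 per well in RPMI-1640/10% FBS; ATP content measured with CellTiter-Glo 2.0 after 72 h.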

human eIF4E protein = biological target: T1, human eIF4E protein (Homo sapiens, UniProt P06730); assay: Biochemical competitive binding assay (TR-FRET competition, EDA-m7GDP-ATTO-647N probe); conditions: read-out: hEIF4E TR-FRET IC50
T1 construct: purchased Novus NBP-45314
Method in brief: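 IC50 values come from 4-parameter fits of the normalized 665/620 nm TR-FRET ratio. Compound was first incubated 15 min with 4 nM recombinant His-eIF4E bound to 2.5 nM Eu-anti-His antibody, then 15 min with 5 nM m7GDP-ATTO-647N tracer, in pH 7.5 HEPES buffer with 100 mM KCl, Tween-20 and BSA.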

T1 sequence (P06730 whole entry): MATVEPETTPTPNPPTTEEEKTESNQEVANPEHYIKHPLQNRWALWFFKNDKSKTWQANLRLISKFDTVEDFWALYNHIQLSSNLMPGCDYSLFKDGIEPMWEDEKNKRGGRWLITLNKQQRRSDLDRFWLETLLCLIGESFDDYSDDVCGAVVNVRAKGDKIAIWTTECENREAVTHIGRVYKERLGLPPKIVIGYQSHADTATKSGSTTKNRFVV

pIC50 [2] | pIC50 (human eIF4E protein) | SMILES | pIC50 [1]
< 4.70 | > 7.00 | Cc1cc(-c2cc(Cl)ccc2OCCn2c(C)nc3c(c2=O)CC(N2CC4CN(C)CC4C2)CC3)c2scc(C(=O)O)c2n1 (stereo not drawn) [Compound 27] | < 5.30
> 5.30 | > 7.00 | Cc1cc(-c2cc(Cl)ccc2OCCn2c(C)nc3c(c2=O)CC(N(C)CC2COC2)CC3)c2scc(C(=O)O)c2n1 (stereo not drawn) [Compound 29] | > 6.00
< 4.70 | > 7.00 | Cc1nc2c(c(=O)n1CCOc1ccc(Cl)cc1-c1ccnn3c(C(=O)O)ccc13)CC(N(C)C)CC2 (stereo not drawn) [Compound 30, 4-[5-chloranyl-2-[2-[6-[di(methyl)amino]-2-methyl-4-oxidanylidene-5,6,7,8-tetrahydroquinazolin-3-yl]ethoxy]phenyl]pyrrolo[1,2-b]pyridazine-7-carboxylic acid] | 5.30 to 6.00
> 5.30 | > 7.00 | Cc1cc(-c2cc(Cl)ccc2OCCn2c(C)nc3c(c2=O)CC(N2CCC(F)(F)CC2)CC3)c2scc(C(=O)O)c2n1 (stereo not drawn) [Compound 32] | > 6.00
< 4.70 | > 7.00 | Cc1cc(-c2cc(Cl)ccc2OCCn2c(C)nc3c(c2=O)CC(N2CCC4(CN(C)C4)C2)CC3)c2scc(C(=O)O)c2n1 (stereo not drawn) [Compound 34] | < 5.30
< 4.70 | > 7.00 | Cc1cc(-c2cc(Cl)ccc2OCCn2c(C)nc3c(c2=O)CC(N(C)C)CC3)c2ccc(C(=O)O)n2n1 (stereo not drawn) [Compound 36, 4-[5-chloranyl-2-[2-[6-[di(methyl)amino]-2-methyl-4-oxidanylidene-5,6,7,8-tetrahydroquinazolin-3-yl]ethoxy]phenyl]-2-methyl-pyrrolo[1,2-b]pyridazine-7-carboxylic acid] | < 5.30
> 5.30 | > 7.00 | Cc1cc(-c2cc(Cl)ccc2OCCn2c(C)nc3c(c2=O)CC(N(C)C2CC(F)(F)C2)CC3)c2scc(C(=O)O)c2n1 (stereo not drawn) [Compound 40, 7-[2-[2-[6-[[3,3-bis(fluorenyl)cyclobutyl]-methyl-amino]-2-methyl-4-oxidanylidene-5,6,7,8-tetrahydroquinazolin-3-yl]ethoxy]-5-chloranyl-phenyl]-5-methyl-thieno[3,2-b]pyridine-3-carboxylic acid; 2,2,2-tris(fluorenyl)acetic acid] | > 6.00
> 5.30 | > 7.00 | Cc1cc(-c2cc(Cl)ccc2OCCn2c(C)nc3c(c2=O)CC(N(C)CCOC(F)(F)F)CC3)c2scc(C(=O)O)c2n1 (stereo not drawn) [Compound 41] | > 6.00
> 5.30 | > 7.00 | Cc1cc(-c2cc(Cl)ccc2OCCn2c(C)nc3c(c2=O)CC(N2CCCCC2)CC3)c2ccc(C(=O)O)n2n1 (stereo not drawn) [Compound 45, 4-[5-chloranyl-2-[2-[2-methyl-4-oxidanylidene-6-(1-piperidyl)-5,6,7,8-tetrahydroquinazolin-3-yl]ethoxy]phenyl]-2-methyl-pyrrolo[1,2-b]pyridazine-7-carboxylic acid] | > 6.00
< 4.70 | > 7.00 | Cc1cc(-c2cc(Cl)ccc2OCCn2c(C)nc3c(c2=O)CC(N(C)c2ccncc2)CC3)c2scc(C(=O)O)c2n1 (stereo not drawn) [Compound 47, 7-[5-chloranyl-2-[2-[2-methyl-6-[methyl(4-pyridyl)amino]-4-oxidanylidene-5,6,7,8-tetrahydroquinazolin-3-yl]ethoxy]phenyl]-5-methyl-thieno[3,2-b]pyridine-3-carboxylic acid; 2,2,2-tris(fluorenyl)acetic acid] | < 5.30
4.70 to 5.30 | 6.30 to 7.00 | Cc1cc(-c2cc(Cl)ccc2OCCn2c(C)nc3c(c2=O)CC(N2CC(F)(F)C2)CC3)c2scc(C(=O)O)c2n1 (stereo not drawn) [Compound 49] | 5.30 to 6.00
> 5.30 | > 7.00 | Cc1cc(-c2cc(Cl)ccc2OCCn2c(C)nc3c(c2=O)CC(N2CCC(F)(F)CC2)CC3)c2scc(C(=O)NS(C)(=O)=O)c2n1 (stereo not drawn) [Compound 52] | > 6.00
> 5.30 | > 7.00 | Cc1cc(-c2cc(Cl)ccc2OCCn2c(C)nc3c(c2=O)CC(N2CCC(F)(F)C2)CC3)c2scc(C(=O)O)c2n1 (stereo not drawn) [Compound 53] | > 6.00
> 5.30 | > 7.00 | Cc1cc(-c2cc(Cl)ccc2OCCn2c(C)nc3c(c2=O)CC(N(C)CC(F)F)CC3)c2scc(C(=O)O)c2n1 (stereo not drawn) [Compound 58] | > 6.00

Continued, compound first:

SMILES | pIC50 [2] | pIC50 (human eIF4E protein) | pIC50 [1]
Cc1cc(-c2cc(Cl)ccc2OCCn2c(C)nc3c(c2=O)CC(N2CCC4(COC4)C2)CC3)c2scc(C(=O)O)c2n1 (stereo not drawn) [Compound 26] | > 5.30 | > 7.00 | > 6.00
COC1CN(C2CCc3nc(C)n(CCOc4ccc(Cl)cc4-c4cc(C)nc5c(C(=O)O)csc45)c(=O)c3C2)C1 (stereo not drawn) [Compound 28] | > 5.30 | > 7.00 | > 6.00
COCCN(C)C1CCc2nc(C)n(CCOc3ccc(Cl)cc3-c3cc(C)nc4c(C(=O)O)csc34)c(=O)c2C1 (stereo not drawn) [Compound 33] | > 5.30 | > 7.00 | > 6.00
Cc1cc(-c2cc(Cl)ccc2OCCn2c(C)nc3c(c2=O)CC(N2CC4(CN(C)C4)C2)CC3)c2scc(C(=O)O)c2n1 (stereo not drawn) [Compound 35] | < 4.70 | > 7.00 | < 5.30
Cc1cc(-c2cc(Cl)ccc2OCCn2c(C)nc3c(c2=O)CC(N(C)S(C)(=O)=O)CC3)c2scc(C(=O)O)c2n1 (stereo not drawn) [Compound 37] | 4.70 to 5.30 | > 7.00 | < 5.30
CC(=O)N(C)C1CCc2nc(C)n(CCOc3ccc(Cl)cc3-c3cc(C)nc4c(C(=O)O)csc34)c(=O)c2C1 (stereo not drawn) [Compound 38] | < 4.70 | 6.30 to 7.00 | < 5.30
Cc1cc(-c2cc(Cl)ccc2OCCn2c(C)nc3c(c2=O)CC(N(C)C)CC3)c2scc(C(=O)NS(C)(=O)=O)c2n1 (stereo not drawn) [Compound 39, 7-[5-chloranyl-2-[2-[6-[di(methyl)amino]-2-methyl-4-oxidanylidene-5,6,7,8-tetrahydroquinazolin-3-yl]ethoxy]phenyl]-5-methyl-N-methylsulfonyl-thieno[3,2-b]pyridine-3-carboxamide; 2,2,2-tris(fluorenyl)acetic acid] | > 5.30 | > 7.00 | > 6.00
Cc1cc(-c2cc(Cl)ccc2OCCn2c(C)nc3c(c2=O)CC(N2CCCC(F)(F)C2)CC3)c2scc(C(=O)O)c2n1 (stereo not drawn) [Compound 50] | > 5.30 | > 7.00 | > 6.00
Cc1cc(-c2cc(Cl)ccc2OCCn2c(C)nc3c(c2=O)CC(N(C)CC(F)(F)F)CC3)c2scc(C(=O)O)c2n1 (stereo not drawn) [Compound 54] | 4.70 to 5.30 | > 7.00 | 5.30 to 6.00
Cc1cc(-c2cc(Cl)ccc2OCCn2c(C)nc3c(c2=O)CC(N(C)CCOC(F)(F)F)CC3)c2scc(C(=O)NS(C)(=O)=O)c2n1 (stereo not drawn) [Compound 55] | > 5.30 | > 7.00 | > 6.00
Cc1cc(-c2cc(Cl)ccc2OCCn2c(C)nc3c(c2=O)CC(N2CC(F)(F)C2)CC3)c2scc(C(=O)NS(C)(=O)=O)c2n1 (stereo not drawn) [Compound 56] | 4.70 to 5.30 | > 7.00 | 5.30 to 6.00
Cc1cc(-c2cc(Cl)ccc2OCCn2c(C)nc3c(c2=O)CC(N(C)Cc2ccncc2F)CC3)c2scc(C(=O)O)c2n1 (stereo not drawn) [Compound 57] | > 5.30 | > 7.00 | > 6.00
